Source: patent publication US9840510B1, “Pyrazolo[1,5-a]pyrimidinyl carboxamide compounds and their use in the treatment of medical disorders” (Lysosomal Therapeutics Inc., priority 2016, dated 2017)
In brackets after ≈: the same amount, converted by molar mass.

test: Compound solubility in water; type: physicochemical

SMILES | solubility
Cc1cc(N2CCCN(CC(F)(F)F)C2=O)nc2c(C(=O)NC(C3CC3)C(F)(F)F)cnn12 (centres unmarked) [III-260] | 21 µg/mL (≈ 43.9 µM)
Cc1cc(N2CCCN(C(C)C)C2=O)nc2c(C(=O)NC(C)(C)C3CC3)cnn12 [III-261] | 23 µg/mL (≈ 57.7 µM)
Cc1cc(N2CCCN(C(C)C)C2=O)nc2c(C(=O)NC(C)(C)C(F)(F)F)cnn12 [III-262] | 19 µg/mL (≈ 44.6 µM)
COc1ccncc1-c1cc(C)n2ncc(C(=O)NC(C3CC3)C(F)(F)F)c2n1 (centres unmarked) [III-263] | 8.9 µg/mL (≈ 22 µM)
Cc1cc(-c2ccc(F)o2)nc2c(C(=O)NC(C3CC3)C(F)(F)F)cnn12 (centres unmarked) [III-264] | 0.4 µg/mL (≈ 1.05 µM)
COc1cncc(-c2cc(C)n3ncc(C(=O)NC(C4CC4)C(F)(F)F)c3n2)c1 (centres unmarked) [III-265] | 1.3 µg/mL (≈ 3.21 µM)
COc1ccc(-c2cc(C)n3ncc(C(=O)NC(C4CC4)C(F)(F)F)c3n2)cn1 (centres unmarked) [III-268] | 1.2 µg/mL (≈ 2.96 µM)
COc1ccncc1-c1cc(C)n2ncc(C(=O)NC(C)C(F)(F)F)c2n1 (centres unmarked) [III-269] | 12.7 µg/mL (≈ 33.5 µM)
COc1cncc(-c2cc(C)n3ncc(C(=O)NC(C)C(F)(F)F)c3n2)c1 (centres unmarked) [III-270] | 4.9 µg/mL (≈ 12.9 µM)
COc1ccc(-c2cc(C)n3ncc(C(=O)NC(C)C(F)(F)F)c3n2)cn1 (centres unmarked) [III-271] | 2.3 µg/mL (≈ 6.06 µM)
COc1ccc(-c2cc(C)n3ncc(C(=O)N[C@H](C)C(F)(F)F)c3n2)cn1 [III-272] | 3.1 µg/mL (≈ 8.17 µM)
COc1ccc(-c2cc(C)n3ncc(C(=O)N[C@@H](C)C(F)(F)F)c3n2)cn1 [III-273] | 3.4 µg/mL (≈ 8.96 µM)
Cc1ccncc1-c1cc(C)n2ncc(C(=O)NC(C3CC3)C(F)(F)F)c2n1 (centres unmarked) [III-274] | 2.3 µg/mL (≈ 5.91 µM)
Cc1cncc(-c2cc(C)n3ncc(C(=O)NC(C4CC4)C(F)(F)F)c3n2)c1 (centres unmarked) [III-275] | 2.6 µg/mL (≈ 6.68 µM)
Cc1cncc(-c2cc(C)n3ncc(C(=O)N[C@H](C4CC4)C(F)(F)F)c3n2)c1 [III-276] | 1.8 µg/mL (≈ 4.62 µM)
Cc1cncc(-c2cc(C)n3ncc(C(=O)N[C@@H](C4CC4)C(F)(F)F)c3n2)c1 [III-277] | 5.3 µg/mL (≈ 13.6 µM)
Cc1ccc(-c2cc(C)n3ncc(C(=O)NC(C4CC4)C(F)(F)F)c3n2)cn1 (centres unmarked) [III-278] | 0.5 µg/mL (≈ 1.28 µM)
Cc1ccc(-c2cc(C)n3ncc(C(=O)N[C@H](C4CC4)C(F)(F)F)c3n2)cn1 [III-279] | 1.5 µg/mL (≈ 3.85 µM)
Cc1ccc(-c2cc(C)n3ncc(C(=O)N[C@@H](C4CC4)C(F)(F)F)c3n2)cn1 [III-280] | 1.3 µg/mL (≈ 3.34 µM)
Cc1ccncc1-c1cc(C)n2ncc(C(=O)NC(C)C(F)(F)F)c2n1 (centres unmarked) [III-281] | 12.5 µg/mL (≈ 34.4 µM)
Cc1cncc(-c2cc(C)n3ncc(C(=O)NC(C)C(F)(F)F)c3n2)c1 (centres unmarked) [III-282] | 6.2 µg/mL (≈ 17.1 µM)

SMILES | solubility
Cc1ccc(-c2cc(C)n3ncc(C(=O)NC(C)C(F)(F)F)c3n2)cn1 (centres unmarked) [III-283] | 12.7 µg/mL (≈ 35 µM)
Cc1cc(-c2cnccc2C(F)(F)F)nc2c(C(=O)NC(C)C(F)(F)F)cnn12 (centres unmarked) [III-284] | 13.2 µg/mL (≈ 31.6 µM)
Cc1cc(-c2cncc(C(F)(F)F)c2)nc2c(C(=O)NC(C)C(F)(F)F)cnn12 (centres unmarked) [III-285] | 1.2 µg/mL (≈ 2.88 µM)
Cc1cc(-c2cncc(C(F)(F)F)c2)nc2c(C(=O)N[C@H](C)C(F)(F)F)cnn12 [III-286] | 2.1 µg/mL (≈ 5.03 µM)
Cc1cc(-c2cncc(C(F)(F)F)c2)nc2c(C(=O)N[C@@H](C)C(F)(F)F)cnn12 [III-287] | 2.4 µg/mL (≈ 5.75 µM)
Cc1cc(-c2ccc(C(F)(F)F)nc2)nc2c(C(=O)NC(C)C(F)(F)F)cnn12 (centres unmarked) [III-288] | 1.4 µg/mL (≈ 3.35 µM)
Cc1cc(-c2ccc3c(c2)OCO3)nc2c(C(=O)NC(C)C(F)(F)F)cnn12 (centres unmarked) [III-289] | 0.8 µg/mL (≈ 2.04 µM)
Cc1cc(-c2cncc(Cl)c2)nc2c(C(=O)N[C@@H](C)C3CC3)cnn12 [III-290] | 2.1 µg/mL (≈ 5.9 µM)
Cc1cc(-c2cncc(Cl)c2)nc2c(C(=O)NC(C)(C)C3CC3)cnn12 [III-292] | 0.3 µg/mL (≈ 0.811 µM)
CCCCO[C@H]1CC[C@H](NC(=O)c2cnn3c(C)cc(-c4cncc(Cl)c4)nc23)CC1 [III-293] | 0.3 µg/mL (≈ 0.679 µM)
Cc1cc(-c2cc(F)c3c(c2)OCO3)nc2c(C(=O)NC(C)C(F)(F)F)cnn12 (centres unmarked) [III-294] | 0.6 µg/mL (≈ 1.46 µM)
Cc1cc(-c2cc(F)c3ocnc3c2)nc2c(C(=O)NC(C)C(F)(F)F)cnn12 (centres unmarked) [III-295] | 3.4 µg/mL (≈ 8.35 µM)
COCCOc1ccc(-c2cc(C)n3ncc(C(=O)NC(C)C(F)(F)F)c3n2)cc1F (centres unmarked) [III-298] | 1.5 µg/mL (≈ 3.41 µM)
Cc1cc(-c2ccc(N3CCOCC3)c(F)c2)nc2c(C(=O)NC(C)C(F)(F)F)cnn12 (centres unmarked) [III-299] | 0.5 µg/mL (≈ 1.11 µM)
Cc1cc(-c2sccc2C#N)nc2c(C(=O)NC(C)C(F)(F)F)cnn12 (centres unmarked) [III-300] | 1.4 µg/mL (≈ 3.69 µM)
Cc1cc(-c2sccc2C#N)nc2c(C(=O)N[C@@H](C)C3CC3)cnn12 [III-301] | 1.1 µg/mL (≈ 3.13 µM)
Cc1cc(-c2sccc2C#N)nc2c(C(=O)N[C@H](C)C3CC3)cnn12 [III-302] | 0.5 µg/mL (≈ 1.42 µM)
Cc1cc(-c2ccc3c(c2)ncn3C)nc2c(C(=O)NC(C3CC3)C(F)(F)F)cnn12 (centres unmarked) [III-303] | 3.2 µg/mL (≈ 7.47 µM)
Cc1cc(-c2ccc3ncn(C)c3c2)nc2c(C(=O)NC(C3CC3)C(F)(F)F)cnn12 (centres unmarked) [III-304] | 0.4 µg/mL (≈ 0.934 µM)
Cc1cc(-c2ccc3nc[nH]c3c2)nc2c(C(=O)NC(C3CC3)C(F)(F)F)cnn12 (centres unmarked) [III-307] | 0.3 µg/mL (≈ 0.724 µM)
Cc1cc(-c2cccc3nc[nH]c23)nc2c(C(=O)NC(C3CC3)C(F)(F)F)cnn12 (centres unmarked) [III-308] | 4.6 µg/mL (≈ 11.1 µM)

SMILES | solubility
Cc1cc(-c2cccc3ncn(C)c23)nc2c(C(=O)NC(C3CC3)C(F)(F)F)cnn12 (centres unmarked) [III-309] | 31.4 µg/mL (≈ 73.3 µM)
Cc1cc(-c2cccc3c2ncn3C)nc2c(C(=O)NC(C3CC3)C(F)(F)F)cnn12 (centres unmarked) [III-310] | 0.3 µg/mL (≈ 0.7 µM)
Cc1cc(-c2nc3ccccc3[nH]2)nc2c(C(=O)NC(C3CC3)C(F)(F)F)cnn12 (centres unmarked) [III-311] | 0.6 µg/mL (≈ 1.45 µM)
Cc1cc(-c2nc3ccccc3n2C)nc2c(C(=O)NC(C3CC3)C(F)(F)F)cnn12 (centres unmarked) [III-312] | 0.3 µg/mL (≈ 0.7 µM)
Cc1cc(N2CC(C(C)C)OC2=O)nc2c(C(=O)NC(c3ccccc3)C(F)(F)F)cnn12 (centres unmarked) [III-313] | 0.1 µg/mL (≈ 0.217 µM)
Cc1cc(N2C[C@H](c3ccccc3)OC2=O)nc2c(C(=O)NC(C3CC3)C(F)(F)F)cnn12 (some centres unmarked) [III-314] | 0.2 µg/mL (≈ 0.435 µM)
Cc1cc(N2C[C@@H](c3ccccc3)OC2=O)nc2c(C(=O)NC(C3CC3)C(F)(F)F)cnn12 (some centres unmarked) [III-315] | 0.1 µg/mL (≈ 0.218 µM)
Cc1cc(N2CC(C(C)C)OC2=O)nc2c(C(=O)NC(C3CC3)C(F)(F)F)cnn12 (centres unmarked) [III-316] | 1.3 µg/mL (≈ 3.06 µM)
Cc1cc(N2CC(C)(C)NC2=O)nc2c(C(=O)NC(C3CC3)C(F)(F)F)cnn12 (centres unmarked) [III-319] | 1.3 µg/mL (≈ 3.17 µM)
Cc1nc2cc(-c3cc(C)n4ncc(C(=O)N[C@@H](C)C5CC5)c4n3)ccc2o1 [III-321] | 1.9 µg/mL (≈ 5.06 µM)
Cc1cc(-c2ccnnc2)nc2c(C(=O)NC(C3CC3)C(F)(F)F)cnn12 (centres unmarked) [III-325] | 14.6 µg/mL (≈ 38.8 µM)
Cc1cc(N2CCN(C(C)C)C2=O)nc2c(C(=O)N[C@@H](C3CC3)C(F)(F)F)cnn12 [III-326] | 21 µg/mL (≈ 49.5 µM)
Cc1cc(N2CCN(C(C)C)C2=O)nc2c(C(=O)N[C@H](C3CC3)C(F)(F)F)cnn12 [III-327] | 32.8 µg/mL (≈ 77.3 µM)
Cc1cc(N2CCC(C)(C)C2=O)nc2c(C(=O)NC(C3CC3)C(F)(F)F)cnn12 (centres unmarked) [III-328] | 3.3 µg/mL (≈ 8.06 µM)
Cc1nc(-c2cc(C)n3ncc(C(=O)N[C@H](C4CC4)C(F)(F)F)c3n2)oc1C [III-331] | 1 µg/mL (≈ 2.54 µM)
Cc1cc(-c2ccc(F)o2)nc2c(C(=O)N[C@H](C)C(F)(F)F)cnn12 [III-334] | 2 µg/mL (≈ 5.61 µM)
Cc1cc(-c2cc(C)n3ncc(C(=O)N[C@H](C)C(F)(F)F)c3n2)co1 [III-338] | 0.2 µg/mL (≈ 0.568 µM)
Cc1cc(-c2cc(C)n3ncc(C(=O)N[C@H](C4CC4)C(F)(F)F)c3n2)on1 [III-343] | 1.5 µg/mL (≈ 3.95 µM)
Cc1nc(-c2cc(C)n3ncc(C(=O)N[C@H](C)C(F)(F)F)c3n2)oc1C [III-345] | 1 µg/mL (≈ 2.72 µM)
Cc1cc(-c2cc(C)n3ncc(C(=O)N[C@@H](C)C4CC4)c3n2)sn1 [III-346] | 18.8 µg/mL (≈ 55.1 µM)
Cc1cc(-c2cc(F)ccc2C#N)nc2c(C(=O)N[C@H](C)C(F)(F)F)cnn12 [III-349] | 0.1 µg/mL (≈ 0.256 µM)

SMILES | solubility
Cc1cc(-c2cc(F)ccc2C#N)nc2c(C(=O)N[C@@H](C)C(F)(F)F)cnn12 [III-350] | 0.3 µg/mL (≈ 0.767 µM)
Cc1cc(-c2cnccc2C(F)(F)F)nc2c(C(=O)N[C@H](C3CC3)C(F)(F)F)cnn12 [III-353] | 8.3 µg/mL (≈ 18.7 µM)
Cc1cc(-c2cnccc2C(F)(F)F)nc2c(C(=O)N[C@@H](C3CC3)C(F)(F)F)cnn12 [III-354] | 13.5 µg/mL (≈ 30.4 µM)
Cc1cc(-c2cccnc2C(F)(F)F)nc2c(C(=O)N[C@H](C3CC3)C(F)(F)F)cnn12 [III-355] | 0.1 µg/mL (≈ 0.226 µM)
Cc1cc(-c2ccc(F)cc2)nc2c(C(=O)N[C@H](C)C(F)(F)F)cnn12 [III-359] | 0.7 µg/mL (≈ 1.91 µM)
Cc1cc(-c2ccc(F)cc2)nc2c(C(=O)N[C@@H](C)C(F)(F)F)cnn12 [III-360] | 0.7 µg/mL (≈ 1.91 µM)
Cc1cc(-c2cccc(F)c2)nc2c(C(=O)N[C@H](C)C(F)(F)F)cnn12 [III-361] | 0.7 µg/mL (≈ 1.91 µM)
Cc1cc(-c2cccc(F)c2)nc2c(C(=O)N[C@@H](C)C(F)(F)F)cnn12 [III-362] | 0.6 µg/mL (≈ 1.64 µM)
Cc1cc(-c2cncc(C#N)c2)nc2c(C(=O)N[C@H](C3CC3)C(F)(F)F)cnn12 [III-363] | 1.7 µg/mL (≈ 4.25 µM)
Cc1cc(-c2cccnc2C#N)nc2c(C(=O)N[C@H](C3CC3)C(F)(F)F)cnn12 [III-365] | 1.8 µg/mL (≈ 4.5 µM)
Cc1cc(-c2cccnc2C#N)nc2c(C(=O)N[C@@H](C3CC3)C(F)(F)F)cnn12 [III-366] | 1.1 µg/mL (≈ 2.75 µM)
Cc1cc(-c2ccc(C#N)nc2)nc2c(C(=O)N[C@H](C3CC3)C(F)(F)F)cnn12 [III-367] | 0.4 µg/mL (≈ 0.999 µM)
Cc1ccc(-c2cc(C)n3ncc(C(=O)N[C@H](C4CC4)C(F)(F)F)c3n2)c(F)n1 [III-372] | 1.7 µg/mL (≈ 4.17 µM)
Cc1cnc(F)c(-c2cc(C)n3ncc(C(=O)N[C@H](C4CC4)C(F)(F)F)c3n2)c1 [III-374] | 1.1 µg/mL (≈ 2.7 µM)
Cc1ncc(-c2cc(C)n3ncc(C(=O)N[C@H](C4CC4)C(F)(F)F)c3n2)cc1F [III-380] | 0.3 µg/mL (≈ 0.736 µM)
C#Cc1cncc(-c2cc(C)n3ncc(C(=O)N[C@@H](C4CC4)C(F)(F)F)c3n2)c1 [III-383] | 0.2 µg/mL (≈ 0.501 µM)
COCOc1cccc(-c2cc(C)n3ncc(C(=O)N[C@@H](C4CC4)C(F)(F)F)c3n2)n1 [III-384] | 0.1 µg/mL (≈ 0.23 µM)
Cc1cc(-c2nnc(C(C)C)o2)nc2c(C(=O)N[C@H](C3CC3)C(F)(F)F)cnn12 [III-391] | 0.3 µg/mL (≈ 0.735 µM)
Cc1cc(-c2nnc(C(C)C)o2)nc2c(C(=O)N[C@@H](C3CC3)C(F)(F)F)cnn12 [III-392] | 0.4 µg/mL (≈ 0.979 µM)
Cc1cc(-c2noc(C(C)C)n2)nc2c(C(=O)N[C@@H](C3CC3)C(F)(F)F)cnn12 [III-394] | 0.7 µg/mL (≈ 1.71 µM)
